Measured values taken from patent publication US20210137883A1, “ANTI-NEOPLASTIC COMPOUNDS AND METHODS TARGETING QSOX1” (ARIZONA BOARD OF REGENTS ON BEHALF OF ARIZONA STATE …, priority 2015, published 2021).
Entries after “also recorded” stand apart in the source; their conditions may differ.

How the values were obtained:
[1] = target: T1, recombinant QSOX1 (Homo sapiens, UniProt O00391); experiment: Fluorogenic HTS assay for QSOX1 inhibitors (H2O2 detection, RNAse A substrate); type: biochemical; conditions: library screen with recombinant QSOX1
T1 construct: made in house
T1 sequence (O00391 30-747): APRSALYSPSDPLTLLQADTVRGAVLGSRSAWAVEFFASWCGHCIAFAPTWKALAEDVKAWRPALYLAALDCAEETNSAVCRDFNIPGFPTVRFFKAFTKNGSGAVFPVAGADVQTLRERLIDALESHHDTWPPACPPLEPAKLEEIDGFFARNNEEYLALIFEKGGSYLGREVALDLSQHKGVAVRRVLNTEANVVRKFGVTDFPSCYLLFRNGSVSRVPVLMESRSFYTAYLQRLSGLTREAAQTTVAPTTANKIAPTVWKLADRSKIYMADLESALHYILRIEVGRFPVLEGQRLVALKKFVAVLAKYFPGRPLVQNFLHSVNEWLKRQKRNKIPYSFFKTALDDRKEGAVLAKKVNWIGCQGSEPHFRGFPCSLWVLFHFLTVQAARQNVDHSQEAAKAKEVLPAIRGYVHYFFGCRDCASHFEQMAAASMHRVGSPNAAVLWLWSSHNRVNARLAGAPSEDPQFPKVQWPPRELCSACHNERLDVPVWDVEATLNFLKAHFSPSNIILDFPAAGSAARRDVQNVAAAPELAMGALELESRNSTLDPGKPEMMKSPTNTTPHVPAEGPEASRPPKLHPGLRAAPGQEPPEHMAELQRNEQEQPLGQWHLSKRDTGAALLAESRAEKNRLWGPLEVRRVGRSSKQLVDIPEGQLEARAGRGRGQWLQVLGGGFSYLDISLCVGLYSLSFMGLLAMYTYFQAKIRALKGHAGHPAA
Procedure: FIG. 7. An in vitro assay to screen for QSOX1 inhibitors; Fluorogenic assay (also can be HTS). Enzymatically active recombinant QSOX1 is incubated with individual compounds in individual wells of a 384 well plate. […] Therefore, no fluorescence is observed.
In screening for inhibitors, recombinant QSOX1 was produced and tested in fluorogenic assays to make sure it was active. The recombinant enzyme then was sent to the Sanford Burnham Institute for use in the same/similar assay to screen libraries for chemical compounds that inhibit the enzymatic activity of QSOX1.
A peptide was identified in plasma from pancreatic cancer patients that mapped back to the QSOX1 parent protein (FIG. 1, prior art). […] A high throughput screening assay (HTS) was employed to screen a library of chemical compounds (50,000 compounds). The assay detects H2O2 produced by QSOX1 when it is enzymatically active (FIG. 7). Inhibition of the enzymatic activity of QSOX1 (with a chemical compound) suppresses H2O2 production, decreasing fluorescent or bioluminescent signal in the assay.

[2] = system: 786-O cells; experiment: Boyden chamber invasion through Matrigel, 786-O kidney cancer cells; type: cell-based; conditions: dose-dependent; FIG. 11
Text: FIG. 11. Effect of Compound SBI-0143183 on Kidney cancer invasion through Matrigel (786-0).

[3] = system: 786-O; experiment: Detection of laminin-α4 deposition with anti-LAMA4 antibody in kidney cancer cells; type: cell-based; conditions: 15 uM SBI-183; 786-O kidney cancer cells; FIG. 12
Procedure: FIG. 12. 786-O Detection of laminin-α4 using anti-LAMA4 antibody in kidney cancer cells after incubation with 15uM SBI-183. […] Secondary alone indicates the goat anti-mouse antibody that was used to detect binding of anti-LAMA4.

[4] = system: MIAPaCa2 pancreatic tumor cells; experiment: Boyden chamber invasion through Matrigel, MIAPaCa2; type: cell-based; conditions: FIG. 13
[5] = system: MCF-10A breast cancer cell lines containing mutant p53; experiment: Boyden chamber invasion through Matrigel, MCF-10A p53 breast cell lines; type: cell-based; conditions: FIG. 13
Text: FIG. 13. […] P530E is MCF-10A non-malignant breast cell line containing wild type (non-mutated) p53. R248W, R273C and Y220C are three different p53 mutants expressed in MCF-10A breast cells.

[6] = system: UOK117 renal cell carcinoma xenografts; experiment: UOK117 renal cell carcinoma xenografts in nude mice; type: in vivo; conditions: oral lavage 20 mg/kg/day from day 7, compared to vehicle-treated and untreated mice, FIG. 14
Procedure: FIG. 14. […] Mice were inoculated with 1 million tumor cells in the hind flank. Treatment was started on day 7 by oral lavage at 20 mg/kg/day.

[7] = system: myeloma cell lines; experiment: MTT assay on myeloma cell lines; type: cell-based; conditions: 2-fold serial dilutions, at higher doses, FIG. 15
Procedure: FIG. 15. MTT assay results from exposure of myeloma cell lines to SBI-183. Assay conditions: 25,000 cells per well were plated in a 96-well flat-bottom plate. 2-fold serial dilutions of SBI-183 were added to each well. % cell viability was calculated using the following formula: cmpd+cells/vehicle+cells*100%.

COc1cccc(C(=O)Nc2ccc(N3CCCC3)cc2)c1 [SBI-183, 3-methoxy-N-[4-(1-pyrrolidinyl)phenyl]benzamide]
inhibition of the enzymatic activity of QSOX1 [1]: inhibitor
invasion of 786-O cells through Matrigel [2]: suppressed invasion
deposition of laminin-α4 into the extracellular matrix [3]: not deposited; also recorded: inhibits deposition
invasion through Matrigel of MIAPaCa2 pancreatic tumor cells [4]: suppresses invasion
invasion through Matrigel of MCF-10A breast cell lines (p53 overexpress and mutant p53 R248W, R273C, Y220C) [5]: suppresses invasion
growth of UOK117 renal cell carcinoma xenografts [6]: suppresses the growth
cell viability (MTT) [7]: decreased viability
